HELM strings list units from the 5' end as sugar, base in round brackets, then linkage (d deoxyribose, r ribose, m 2'-O-methyl, p phosphodiester). Strings are as the collection lists them; they lack the last nucleoside at the 3' end of the tested compound. [moe] = 2'-O-(2-methoxyethyl) (MOE); [sp] = phosphorothioate linkage; [m5C] = 5-methylcytosine

This series concerns the target UBE3A-ATS. Kind of series: mouse, dose not given. The note with it: ASO.

In the case of “RNA1{[moe]([m5C])[sp].[moe](A)p.[moe](G)p.[moe](A)p.[moe](G)p.d(T)[sp].d(G)[sp].d(T)[sp].d([m5C])[sp].d(T)[sp].d(T)[sp].d(A)[sp].d(G)[sp].d(G)[sp].d(G)[sp].[moe](T)p.[moe]([m5C])p.[moe](T)[sp].[moe]([m5C])}$$$$ (last 3' nucleoside missing)”, the 3 h FOB score came out at 5.5 score 0-7. In the case of “RNA1{[moe](G)[sp].[moe]([m5C])p.[moe](T)p.[moe]([m5C])p.d(A)[sp].d(G)[sp].d(T)[sp].d(T)[sp].d(A)[sp].d(G)[sp].d(G)[sp].d(T)[sp].d(T)[sp].d(A)[sp].[moe](G)p.[moe](T)p.[moe](G)p.[moe]([m5C])[sp].[moe](A)}$$$$ (last 3' nucleoside missing)” it was 4 score 0-7; in that of “RNA1{[moe](T)[sp].[moe](A)p.[moe](T)p.[moe](G)p.[moe](T)p.d(A)[sp].d(G)[sp].d([m5C])[sp].d(T)[sp].d([m5C])[sp].d(A)[sp].d(G)[sp].d([m5C])[sp].d(T)[sp].d([m5C])[sp].[moe](A)p.[moe](A)p.[moe](T)[sp].[moe](G)}$$$$ (last 3' nucleoside missing)”, 1 score 0-7; in that of “RNA1{[moe](T)[sp].[moe]([m5C])p.[moe](A)p.[moe]([m5C])p.[moe]([m5C])p.[moe](A)[sp].d(T)[sp].d(T)[sp].d(T)[sp].d(T)[sp].d(G)[sp].d(A)[sp].d([m5C])[sp].d([m5C])[sp].[moe](T)p.[moe](T)[sp].[moe]([m5C])}$$$$ (last 3' nucleoside missing)”, 0.3 score 0-7. “RNA1{[moe](T)[sp].[moe](A)p.[moe](A)p.[moe](G)p.[moe](G)p.d(T)[sp].d([m5C])[sp].d(T)[sp].d(G)[sp].d(T)[sp].d(T)[sp].d(A)[sp].d(T)[sp].d(T)[sp].d([m5C])[sp].[moe](T)p.[moe]([m5C])p.[moe]([m5C])[sp].[moe]([m5C])}$$$$ (last 3' nucleoside missing)”: the 3 h FOB score came out at 0.8 score 0-7. In the case of “RNA1{[moe]([m5C])[sp].[moe](T)p.[moe](T)p.[moe]([m5C])[sp].d(A)[sp].d([m5C])[sp].d([m5C])[sp].d(A)[sp].d(T)[sp].d(T)[sp].d(T)[sp].d(T)[sp].[moe](G)p.[moe](A)p.[moe]([m5C])p.[moe]([m5C])[sp].[moe](T)}$$$$ (last 3' nucleoside missing)” it was 0 score 0-7; in that of “RNA1{[moe](T)[sp].[moe](G)p.[moe](A)p.[moe](T)p.[moe]([m5C])p.d(A)[sp].d([m5C])[sp].d(A)[sp].d(T)[sp].d(T)[sp].d(A)[sp].d([m5C])[sp].d([m5C])[sp].d([m5C])[sp].d(A)[sp].[moe](T)p.[moe]([m5C])p.[moe]([m5C])[sp].[moe](G)}$$$$ (last 3' nucleoside missing)”, 0 score 0-7. Consider “RNA1{[moe](T)[sp].[moe](T)p.[moe](A)p.[moe](G)p.d(G)[sp].d(T)[sp].d([m5C])[sp].d(A)[sp].d(A)[sp].d([m5C])[sp].d([m5C])[sp].d(A)[sp].d(A)[sp].d(T)[sp].[moe](T)p.[moe](T)p.[moe](G)p.[moe]([m5C])[sp].[moe](T)}$$$$ (last 3' nucleoside missing)”, for which the 3 h FOB score came out at 0 score 0-7.

In turn, “RNA1{[moe](A)[sp].[moe]([m5C])p.[moe]([m5C])p.[moe](A)p.[moe](T)p.d(T)[sp].d(T)[sp].d(T)[sp].d(G)[sp].d(A)[sp].d([m5C])[sp].d([m5C])[sp].d(T)[sp].d(T)[sp].d([m5C])[sp].[moe](T)p.[moe](T)p.[moe](A)[sp].[moe](G)}$$$$ (last 3' nucleoside missing)” gave a 3 h FOB score of 0 score 0-7. In the case of “RNA1{[moe](G)[sp].[moe](T)p.[moe](A)p.[moe](A)p.[moe](G)p.d(A)[sp].d(G)[sp].d(T)[sp].d(T)[sp].d(A)[sp].d(G)[sp].d([m5C])[sp].d(T)[sp].d(A)[sp].d(T)[sp].[moe](T)p.[moe]([m5C])p.[moe]([m5C])[sp].[moe]([m5C])}$$$$ (last 3' nucleoside missing)” it was 4 score 0-7.

In the case of “RNA1{[moe](G)[sp].[moe](T)p.[moe](A)p.[moe](T)p.[moe](T)p.d(G)[sp].d(A)[sp].d([m5C])[sp].d(A)[sp].d([m5C])[sp].d([m5C])[sp].d(T)[sp].d([m5C])[sp].d([m5C])[sp].d(A)[sp].[moe](A)p.[moe]([m5C])p.[moe](T)[sp].[moe](G)}$$$$ (last 3' nucleoside missing)”, the 3 h FOB score is 2 score 0-7. The substance “RNA1{[moe](T)[sp].[moe](G)p.[moe](T)p.[moe](G)p.[moe](T)p.[moe](G)p.d(T)[sp].d(T)[sp].d(T)[sp].d(T)[sp].d(T)[sp].d([m5C])[sp].d([m5C])[sp].d(A)[sp].d(T)[sp].d(T)[sp].[moe](T)p.[moe](T)[sp].[moe](T)}$$$$ (last 3' nucleoside missing)” came in with a 3 h FOB score of 0 score 0-7. On to “RNA1{[moe](G)[sp].[moe](G)p.[moe](T)p.[moe](A)p.[moe](T)p.d(T)[sp].d(G)[sp].d(A)[sp].d([m5C])[sp].d(A)[sp].d([m5C])[sp].d([m5C])[sp].d(T)[sp].d([m5C])[sp].d([m5C])[sp].[moe](A)p.[moe](A)p.[moe]([m5C])[sp].[moe](T)}$$$$ (last 3' nucleoside missing)”, for which the 3 h FOB score amounted to 5 score 0-7. Under “RNA1{[moe](A)[sp].[moe](A)p.[moe](G)p.[moe](T)p.[moe]([m5C])p.d(A)[sp].d(T)[sp].d(T)[sp].d([m5C])[sp].d([m5C])[sp].d([m5C])[sp].d([m5C])[sp].d(A)[sp].d([m5C])[sp].d([m5C])[sp].[moe]([m5C])p.[moe](T)p.[moe](G)[sp].[moe](G)}$$$$ (last 3' nucleoside missing)” stands 1.8 score 0-7; under “RNA1{[moe]([m5C])[sp].[moe](A)p.[moe]([m5C])p.[moe](T)p.[moe](G)p.d(A)[sp].d(G)[sp].d(T)[sp].d(T)[sp].d(T)[sp].d(T)[sp].d(T)[sp].d(G)[sp].d(T)[sp].d(A)[sp].[moe](G)p.[moe](T)p.[moe](T)[sp].[moe]([m5C])}$$$$ (last 3' nucleoside missing)”, 4 score 0-7; under “RNA1{[moe](G)[sp].[moe](A)p.[moe](G)p.[moe]([m5C])p.d(T)[sp].d(A)[sp].d(T)[sp].d([m5C])[sp].d(T)[sp].d(G)[sp].d(T)[sp].d(A)[sp].d([m5C])[sp].d(A)[sp].[moe](A)p.[moe](A)p.[moe](A)p.[moe](T)[sp].[moe](G)}$$$$ (last 3' nucleoside missing)”, 4.7 score 0-7. As to “RNA1{[moe](T)[sp].[moe](A)p.[moe](G)p.[moe](G)p.d(T)[sp].d([m5C])[sp].d(A)[sp].d(A)[sp].d([m5C])[sp].d([m5C])[sp].d(A)[sp].d(A)[sp].d(T)[sp].d(T)[sp].[moe](T)p.[moe](G)p.[moe]([m5C])p.[moe](T)[sp].[moe](A)}$$$$ (last 3' nucleoside missing)”, the 3 h FOB score is 0 score 0-7.

“RNA1{[moe](T)[sp].[moe](T)p.[moe](G)p.[moe](G)p.[moe]([m5C])p.d(A)[sp].d([m5C])[sp].d(A)[sp].d([m5C])[sp].d([m5C])[sp].d(T)[sp].d(G)[sp].d(G)[sp].d(A)[sp].d(T)[sp].[moe](T)p.[moe](T)p.[moe]([m5C])[sp].[moe](A)}$$$$ (last 3' nucleoside missing)” returned a 3 h FOB score of 2 score 0-7. In turn, “RNA1{[moe](G)[sp].[moe](A)p.[moe](T)p.[moe](T)p.[moe](A)p.d(T)[sp].d([m5C])[sp].d(T)[sp].d([m5C])[sp].d(A)[sp].d(G)[sp].d(A)[sp].d([m5C])[sp].d(A)[sp].d(T)[sp].[moe](G)p.[moe]([m5C])p.[moe]([m5C])[sp].[moe](A)}$$$$ (last 3' nucleoside missing)” returned a 3 h FOB score of 3.2 score 0-7. Take “RNA1{[moe](T)[sp].[moe]([m5C])p.[moe](A)p.[moe](A)p.[moe]([m5C])[sp].d([m5C])[sp].d(A)[sp].d(A)[sp].d(T)[sp].d(T)[sp].d(T)[sp].d(G)[sp].d([m5C])[sp].[moe](T)p.[moe](A)p.[moe](T)[sp].[moe](T)}$$$$ (last 3' nucleoside missing)”: the 3 h FOB score stood at 3 score 0-7. The substance “RNA1{[moe](T)[sp].[moe](G)p.[moe]([m5C])p.[moe](T)[sp].d(T)[sp].d([m5C])[sp].d(A)[sp].d([m5C])[sp].d([m5C])[sp].d(A)[sp].d(T)[sp].d(T)[sp].[moe](T)p.[moe](T)p.[moe](G)p.[moe](A)[sp].[moe]([m5C])}$$$$ (last 3' nucleoside missing)” gave a 3 h FOB score of 0 score 0-7. On to “RNA1{[moe](T)[sp].[moe](A)p.[moe](G)p.[moe](G)p.[moe]([m5C])p.d(T)[sp].d(G)[sp].d(G)[sp].d(G)[sp].d([m5C])[sp].d([m5C])[sp].d(T)[sp].d([m5C])[sp].d(A)[sp].d(G)[sp].[moe]([m5C])p.[moe](G)p.[moe](T)[sp].[moe](A)}$$$$ (last 3' nucleoside missing)”, for which the 3 h FOB score worked out at 3.5 score 0-7. In the case of “RNA1{[moe](G)[sp].[moe](G)p.[moe]([m5C])p.[moe](A)p.[moe](G)p.d([m5C])[sp].d(T)[sp].d([m5C])[sp].d([m5C])[sp].d(T)[sp].d(G)[sp].d(A)[sp].d([m5C])[sp].d(A)[sp].d(A)[sp].[moe](A)p.[moe](T)p.[moe](T)[sp].[moe](A)}$$$$ (last 3' nucleoside missing)” it was 4 score 0-7; in that of “RNA1{[moe](T)[sp].[moe]([m5C])p.[moe](A)p.[moe](T)p.[moe]([m5C])p.d(T)[sp].d([m5C])[sp].d(G)[sp].d(G)[sp].d(G)[sp].d(T)[sp].d(A)[sp].d(T)[sp].d(A)[sp].d(T)[sp].[moe](A)p.[moe](A)p.[moe](A)[sp].[moe](T)}$$$$ (last 3' nucleoside missing)”, 3.3 score 0-7.

As for “RNA1{[moe](G)[sp].[moe](G)p.[moe](A)p.[moe](G)p.[moe](A)p.d([m5C])[sp].d(A)[sp].d(A)[sp].d(T)[sp].d([m5C])[sp].d(T)[sp].d(A)[sp].d(G)[sp].d(T)[sp].d(T)[sp].[moe](A)p.[moe](G)p.[moe](A)[sp].[moe]([m5C])}$$$$ (last 3' nucleoside missing)”, the 3 h FOB score is 4 score 0-7.

(Values after the OligoGym collection.)
